In PubChem BioAssay AID256 (DTP/NCI, 2004):
Several values for one entry are separate records, joined by “and”; a condition that tells them apart may be missing. Identical values can stand only once. Toxic doses and inconclusive results are not listed. Rule for the calls: active = survival T/C of 150% or more; inactive = T/C below 125% in these data.

System: CD2F1 mice, L1210 leukemia ip, survival T/C
Assay: NCI In Vivo Anticancer Drug Screen. Data for tumor model L1210 Leukemia (intraperitoneal) in CD2F1 (CDF1) mice
Conditions: higher = longer survival
Method in brief: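 Implant tumor; dose compound or vehicle; measure endpoint in both groups; report treated divided by control.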

[1] = endpoint: mean survival time, dose: 100.0 mg/kg/injection, schedule: Q04DX003 (ip), vehicle: saline with Tween-80
[2] = endpoint: mean survival time, dose: 200.0 mg/kg/injection, schedule: Q04DX003 (ip), vehicle: saline with Tween-80
[3] = endpoint: mean survival time, dose: 400.0 mg/kg/injection, schedule: Q04DX003 (ip), vehicle: saline with Tween-80
[4] = endpoint: mean survival time, dose: 100.0 mg/kg/injection, schedule: Q01DX009 (ip), vehicle: saline with Tween-80
[5] = endpoint: mean survival time, dose: 200.0 mg/kg/injection, schedule: Q01DX009 (ip), vehicle: saline with Tween-80

Measured: T/C

CC1(C)CC(=O)C(CSC(=O)c2ccccc2)C(=O)C1
inactive: endpoint: mean survival time, dose: 3.12 mg/kg/injection, schedule: Q01DX009 (ip), vehicle: Klucel (hydroxypropylcellulose) (HPC) 96 % of control and 100 % of control | endpoint: mean survival time, dose: 6.25 mg/kg/injection, schedule: Q01DX009 (ip), vehicle: Klucel (hydroxypropylcellulose) (HPC) 101 % of control and 105 % of control | endpoint: mean survival time, dose: 12.5 mg/kg/injection, schedule: Q01DX009 (ip), vehicle: Klucel (hydroxypropylcellulose) (HPC) 103 % of control and 104 % of control | endpoint: mean survival time, dose: 25.0 mg/kg/injection, schedule: Q01DX009 (ip), vehicle: Klucel (hydroxypropylcellulose) (HPC) 100 % of control and 105 % of control | endpoint: mean survival time, dose: 50.0 mg/kg/injection, schedule: Q01DX009 (ip), vehicle: Klucel (hydroxypropylcellulose) (HPC) 102 % of control and 106 % of control | endpoint: mean survival time, dose: 100.0 mg/kg/injection, schedule: Q01DX009 (ip), vehicle: Klucel (hydroxypropylcellulose) (HPC) 102 % of control

CC(/C=N/N=C(N)N)=N\N=C(N)N
inactive: endpoint: mean survival time, dose: 12.5 mg/kg/injection, schedule: Q04DX003 (ip), vehicle: Klucel (hydroxypropylcellulose) (HPC) 97 % of control | endpoint: mean survival time, dose: 25.0 mg/kg/injection, schedule: Q04DX003 (ip), vehicle: Klucel (hydroxypropylcellulose) (HPC) 98 % of control | endpoint: mean survival time, dose: 50.0 mg/kg/injection, schedule: Q04DX003 (ip), vehicle: Klucel (hydroxypropylcellulose) (HPC) 110 % of control | endpoint: mean survival time, dose: 53.6 mg/kg/injection, schedule: Q03HX024 (ip), vehicle: clinical formulation 92 % of control | endpoint: median survival time, dose: 120.0 mg/kg/injection, schedule: Q01DX009 (ip), vehicle: saline 87 % of control

O=C(c1ccccc1)c1ccc(OCCOc2ccc(C(=O)c3ccccc3)cc2)cc1
inactive: [1] 96 % of control | [2] 93 % of control | [3] 93 % of control

S=c1cc[nH]c2ccccc12
inactive: endpoint: mean survival time, dose: 12.5 mg/kg/injection, schedule: Q01DX009 (ip), vehicle: other 104 % of control | endpoint: mean survival time, dose: 25.0 mg/kg/injection, schedule: Q01DX009 (ip), vehicle: other 102 % of control | endpoint: mean survival time, dose: 50.0 mg/kg/injection, schedule: Q01DX009 (ip), vehicle: other 104 % of control

[Cl][Pt][Cl].[NH-]C(CCC(N)=O)C(=O)O (stereo not given)
inactive: endpoint: median survival time, dose: 12.5 mg/kg/injection, schedule: Q04DX003 (ip), vehicle: water 100 % of control | endpoint: median survival time, dose: 25.0 mg/kg/injection, schedule: Q04DX003 (ip), vehicle: water 101 % of control | endpoint: median survival time, dose: 50.0 mg/kg/injection, schedule: Q04DX003 (ip), vehicle: water 108 % of control | endpoint: median survival time, dose: 100.0 mg/kg/injection, schedule: Q04DX003 (ip), vehicle: water 107 % of control | endpoint: median survival time, dose: 200.0 mg/kg/injection, schedule: Q04DX003 (ip), vehicle: water 111 % of control

O=C(O)C1CCC=CCC1
inactive: endpoint: mean survival time, dose: 100.0 mg/kg/injection, schedule: Q04DX003 (ip), vehicle: other 103 % of control | endpoint: mean survival time, dose: 200.0 mg/kg/injection, schedule: Q04DX003 (ip), vehicle: other 94 % of control | endpoint: mean survival time, dose: 400.0 mg/kg/injection, schedule: Q04DX003 (ip), vehicle: other 89 % of control

O=c1[nH]c2cc(Br)ccc2c2ccc(Br)cc12
inactive: endpoint: mean survival time, dose: 50.0 mg/kg/injection, schedule: Q01DX001 (ip), vehicle: carboxymethylcellulose (CMC) 95 % of control | endpoint: mean survival time, dose: 100.0 mg/kg/injection, schedule: Q01DX001 (ip), vehicle: carboxymethylcellulose (CMC) 98 % of control | endpoint: mean survival time, dose: 200.0 mg/kg/injection, schedule: Q01DX001 (ip), vehicle: carboxymethylcellulose (CMC) 101 % of control | endpoint: mean survival time, dose: 400.0 mg/kg/injection, schedule: Q01DX001 (ip), vehicle: carboxymethylcellulose (CMC) 104 % of control

CCCCN1C(=O)c2c(Cl)c(Cl)c(Cl)c(Cl)c2C1=O
inactive: endpoint: mean survival time, dose: 25.0 mg/kg/injection, schedule: Q04DX002 (ip), vehicle: other 90 % of control | endpoint: mean survival time, dose: 50.0 mg/kg/injection, schedule: Q04DX002 (ip), vehicle: other 90 % of control | endpoint: mean survival time, dose: 100.0 mg/kg/injection, schedule: Q04DX002 (ip), vehicle: other 86 % of control

CC(C)(S)CNCCSC(=O)c1ccccc1
inactive: [4] 103 % of control | [5] 100 % of control | endpoint: mean survival time, dose: 400.0 mg/kg/injection, schedule: Q01DX009 (ip), vehicle: saline with Tween-80 94 % of control

CN(C)c1ccc2c(c1)Oc1cc(N(C)C)ccc1C21OC(=O)c2ccccc21
inactive: endpoint: mean survival time, dose: 100.0 mg/kg/injection, schedule: Q01DX001 (ip), vehicle: saline with Tween-80 97 % of control | endpoint: mean survival time, dose: 200.0 mg/kg/injection, schedule: Q01DX001 (ip), vehicle: saline with Tween-80 101 % of control | endpoint: mean survival time, dose: 400.0 mg/kg/injection, schedule: Q01DX001 (ip), vehicle: saline with Tween-80 97 % of control

CC1Cc2c([nH]c3ccc(Cl)cc23)CN1 (stereo not given)
inactive: endpoint: mean survival time, dose: 100.0 mg/kg/injection, schedule: Q04DX002 (ip), vehicle: saline with Tween-80 86 % of control | endpoint: mean survival time, dose: 200.0 mg/kg/injection, schedule: Q04DX002 (ip), vehicle: saline with Tween-80 89 % of control

CCC[CH2][Sn]1([CH2]CCC)[O]C(=O)C2CC=CCC2C(=O)[O]1 (stereo not given)
inactive: endpoint: mean survival time, dose: 100.0 mg/kg/injection, schedule: Q01DX001 (ip), vehicle: saline 102 % of control | endpoint: mean survival time, dose: 200.0 mg/kg/injection, schedule: Q01DX001 (ip), vehicle: saline 104 % of control

CCOC1C=CCCC1 (stereo not given)
inactive: [4] 95 % of control | [1] 97 % of control | [5] 95 % of control | [2] 93 % of control | [3] 97 % of control

O=c1ssc2ccccc12
inactive: [1] 101 % of control | [2] 101 % of control | [3] 98 % of control
